Experiments:
[1] = biological target: His6-TEV-PDGFRβ (557-1016) (Homo sapiens (Human), UniProt P09619); experiment: PDGFRβ HTRF Assay; assay type: biochemical; details: read-out: PDGFR HTRF IC50
How it was run: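 Human PDGFRβ (557-1016) pre-incubated with compound for 30 min at RT in pH 7.5 HEPES/MgCl2/EGTA/Brij-35/DTT buffer. Reaction started with ATP and TK-biotin peptide, run 3 h at RT, then quenched with EDTA-containing Eu-cryptate antibody/streptavidin-XL665. HTRF 665/620 nm ratio read after 60 min; percent inhibition relative to DMSO and 10 μM imatinib controls.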

[2] = biological target: VEGFR2, unphosphorylated (Homo sapiens (Human), UniProt P35968); experiment: VEGFR ADP GLO Assay; assay type: biochemical
[3] = biological target: Tb-labeled inactive PDGFRβ (Homo sapiens (Human), UniProt P09619); experiment: PDGFRβ LanthaScreen Assay; assay type: binding; details: read-out: PDGFR Lantha IC50
Chain of Tb-labeled inactive PDGFRβ (P09619 33-1106): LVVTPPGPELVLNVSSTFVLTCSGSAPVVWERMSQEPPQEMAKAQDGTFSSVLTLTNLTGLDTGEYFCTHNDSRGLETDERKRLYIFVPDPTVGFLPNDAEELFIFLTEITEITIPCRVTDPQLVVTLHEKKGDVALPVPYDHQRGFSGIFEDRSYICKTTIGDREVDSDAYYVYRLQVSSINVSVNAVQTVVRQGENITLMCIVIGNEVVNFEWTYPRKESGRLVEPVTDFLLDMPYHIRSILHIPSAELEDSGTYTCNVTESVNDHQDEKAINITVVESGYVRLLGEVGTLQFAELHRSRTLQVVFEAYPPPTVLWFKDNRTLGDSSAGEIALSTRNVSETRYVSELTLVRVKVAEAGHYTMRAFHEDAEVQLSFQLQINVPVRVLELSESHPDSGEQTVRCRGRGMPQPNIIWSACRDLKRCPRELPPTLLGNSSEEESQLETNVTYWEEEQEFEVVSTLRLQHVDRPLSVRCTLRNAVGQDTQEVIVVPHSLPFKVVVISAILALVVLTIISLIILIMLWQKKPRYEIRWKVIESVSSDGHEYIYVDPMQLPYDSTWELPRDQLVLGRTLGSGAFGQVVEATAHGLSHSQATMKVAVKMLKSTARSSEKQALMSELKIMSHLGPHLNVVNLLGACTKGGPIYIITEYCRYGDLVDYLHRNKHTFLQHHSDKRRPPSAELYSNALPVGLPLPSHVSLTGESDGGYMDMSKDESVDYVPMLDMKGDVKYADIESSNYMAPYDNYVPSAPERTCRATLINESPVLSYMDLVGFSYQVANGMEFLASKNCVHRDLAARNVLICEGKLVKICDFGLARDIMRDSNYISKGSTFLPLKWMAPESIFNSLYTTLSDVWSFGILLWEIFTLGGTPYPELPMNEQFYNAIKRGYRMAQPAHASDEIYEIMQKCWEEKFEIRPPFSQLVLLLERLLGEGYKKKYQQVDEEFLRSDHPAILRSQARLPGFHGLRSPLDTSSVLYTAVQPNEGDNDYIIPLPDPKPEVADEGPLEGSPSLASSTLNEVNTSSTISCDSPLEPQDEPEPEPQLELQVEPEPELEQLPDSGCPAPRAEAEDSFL

Chain of His6-TEV-PDGFRβ (557-1016) (P09619 557-1016): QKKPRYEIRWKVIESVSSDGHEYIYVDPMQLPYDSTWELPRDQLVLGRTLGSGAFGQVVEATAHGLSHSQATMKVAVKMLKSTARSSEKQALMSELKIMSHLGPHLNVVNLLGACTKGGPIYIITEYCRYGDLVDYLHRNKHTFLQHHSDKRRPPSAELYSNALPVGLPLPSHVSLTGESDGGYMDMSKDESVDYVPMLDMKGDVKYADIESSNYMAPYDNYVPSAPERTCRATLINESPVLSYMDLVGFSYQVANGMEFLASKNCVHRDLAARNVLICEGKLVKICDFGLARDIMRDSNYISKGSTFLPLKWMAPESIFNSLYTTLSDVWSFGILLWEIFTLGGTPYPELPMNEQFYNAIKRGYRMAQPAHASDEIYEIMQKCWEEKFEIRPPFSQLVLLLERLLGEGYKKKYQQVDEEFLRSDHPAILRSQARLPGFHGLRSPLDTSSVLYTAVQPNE
Chain of VEGFR2, unphosphorylated (P35968 20-1356): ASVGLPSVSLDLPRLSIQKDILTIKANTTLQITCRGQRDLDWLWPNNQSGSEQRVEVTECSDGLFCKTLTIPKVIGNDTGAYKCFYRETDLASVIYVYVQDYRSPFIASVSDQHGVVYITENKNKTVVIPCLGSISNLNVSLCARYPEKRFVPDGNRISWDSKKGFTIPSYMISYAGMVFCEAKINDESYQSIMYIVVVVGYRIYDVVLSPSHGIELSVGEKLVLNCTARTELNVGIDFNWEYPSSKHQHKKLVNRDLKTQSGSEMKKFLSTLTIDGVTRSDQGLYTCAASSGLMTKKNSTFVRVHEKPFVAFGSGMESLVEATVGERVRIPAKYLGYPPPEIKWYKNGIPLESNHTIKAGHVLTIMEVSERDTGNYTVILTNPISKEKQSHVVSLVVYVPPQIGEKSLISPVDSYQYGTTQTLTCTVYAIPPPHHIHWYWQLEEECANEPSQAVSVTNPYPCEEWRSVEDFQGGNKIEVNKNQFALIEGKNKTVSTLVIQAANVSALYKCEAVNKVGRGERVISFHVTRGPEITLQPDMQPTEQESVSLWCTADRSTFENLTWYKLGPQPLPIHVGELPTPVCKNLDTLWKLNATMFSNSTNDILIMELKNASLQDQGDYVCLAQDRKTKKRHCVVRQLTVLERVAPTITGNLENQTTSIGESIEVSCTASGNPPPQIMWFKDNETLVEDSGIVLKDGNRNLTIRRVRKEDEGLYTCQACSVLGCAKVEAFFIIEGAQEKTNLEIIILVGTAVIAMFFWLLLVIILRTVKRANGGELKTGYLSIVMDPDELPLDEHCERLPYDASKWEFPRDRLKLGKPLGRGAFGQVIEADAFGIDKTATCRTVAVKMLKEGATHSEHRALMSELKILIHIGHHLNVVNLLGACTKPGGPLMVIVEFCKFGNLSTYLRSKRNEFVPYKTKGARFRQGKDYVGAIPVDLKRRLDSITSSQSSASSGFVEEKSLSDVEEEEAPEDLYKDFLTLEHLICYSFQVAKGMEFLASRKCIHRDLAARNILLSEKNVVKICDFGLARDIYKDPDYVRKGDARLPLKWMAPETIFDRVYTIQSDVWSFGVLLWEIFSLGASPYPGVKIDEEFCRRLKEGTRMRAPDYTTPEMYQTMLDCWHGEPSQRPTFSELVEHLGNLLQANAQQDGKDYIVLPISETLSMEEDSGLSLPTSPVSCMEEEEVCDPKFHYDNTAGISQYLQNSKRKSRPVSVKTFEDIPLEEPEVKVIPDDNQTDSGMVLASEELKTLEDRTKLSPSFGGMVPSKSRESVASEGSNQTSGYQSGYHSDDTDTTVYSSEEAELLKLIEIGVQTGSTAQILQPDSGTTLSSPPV

| Structure (SMILES) | IC50 [1] [nM] | IC50 [2] [nM] | IC50 [3] [nM] |
| --- | --- | --- | --- |
| Cc1cc(C(=O)NCCN2CCCC2(C)C)sc1NC(=O)c1cnn2cc(-c3cnn(C)c3)sc12 [Example 182, N-(5-((2-(2,2-dimethylpyrrolidin-1-yl)ethyl)carbamoyl)-3-methylthiophen-2-yl)-2-(1-methyl-1H-pyrazol-4-yl)pyrazolo[5,1-b]thiazole-7-carboxamide] | 24.1 | > 7500 | 1980 |
| Cc1ncc(C(=O)NCCN2CCCC23CCC3)cc1NC(=O)c1cnn2cc(-c3cnn(C)c3C)sc12 [Example 209, N-(5-((2-(5-azaspiro[3.4]octan-5-yl)ethyl)carbamoyl)-2-methyl-pyridin-3-yl)-2-(1,5-dimethyl-1H-pyrazol-4-yl)pyrazolo[5,1-b]thiazole-7-carboxamide] | 0.3 | > 7500 | 2.2 |
| Cc1cc(C(=O)NCCN2CCCC2(C)C)sc1NC(=O)c1cnn2cc(-c3cnn(C)n3)sc12 [Example 186, N-(5-((2-(2,2-dimethylpyrrolidin-1-yl)ethyl)carbamoyl)-3-methylthiophen-2-yl)-2-(2-methyl-2H-1,2,3-triazol-4-yl)pyrazolo[5,1-b]thiazole-7-carboxamide] | 41.4 | > 7500 | 2250 |
| Cc1ncc(NC(=O)OC[C@@H]2CCCN2C(C)C)cc1NC(=O)c1cnn2cc(-c3cnn(C)c3)sc12 [Example 245, (S)-(1-isopropylpyrrolidin-2-yl)methyl (6-methyl-5-(2-(1-methyl-1H-pyrazol-4-yl)pyrazolo[5,1-b]thiazole-7-carboxamido)pyridin-3-yl)carbamate] | 0.4 | > 7500 | 10.8 |
| Cc1cc(C(=O)NCCN2CCC(C)(C)CC2)sc1NC(=O)c1cnn2cc(-c3cnn(C)c3)sc12 [Example 183, N-(5-((2-(4,4-dimethylpiperidin-1-yl)ethyl)carbamoyl)-3-methylthiophen-2-yl)-2-(1-methyl-1H-pyrazol-4-yl)pyrazolo[5,1-b]thiazole-7-carboxamide] | 11.1 | > 7500 | 652 |
| Cc1ncc(NC(=O)CCN2CCCC2(C)C)cc1NC(=O)c1cnn2cc(-c3cccc4c3cnn4C)sc12 [Example 241, N-(5-(3-(2,2-dimethylpyrrolidin-1-yl)propanamido)-2-methylpyridin-3-yl)-2-(1-methyl-1H-indazol-4-yl)pyrazolo[5,1-b]thiazole-7-carboxamide] | 0.1 | > 2500 | 0.7 |
| Cc1ncc(C(=O)N2CC2CNC(C)(C)C)cc1NC(=O)c1cnn2cc(-c3cccc4c3cnn4C)sc12 (stereo not drawn) [Example 239, N-(5-(2-((tert-butylamino)methyl)aziridine-1-carbonyl)-2-methylpyridin-3-yl)-2-(1-methyl-1H-indazol-4-yl)pyrazolo[5,1-b]thiazole-7-carboxamide] | 5 | > 2500 | 78.7 |
| Cc1cc(C(=O)NCCN2CC[C@H](O)C2)sc1NC(=O)c1cnn2cc(-c3cnn(C)c3)sc12 [Example 195, (S)—N-(5-((2-(3-hydroxypyrrolidin-1-yl)ethyl)carbamoyl)-3-methylthiophen-2-yl)-2-(1-methyl-1H-pyrazol-4-yl)pyrazolo[5,1-b]thiazole-7-carboxamide] | 156 | > 7500 | > 3000 |
| Cc1ncc(NC(=O)CN2CCc3cnn(C)c3C2)cc1NC(=O)c1cnn2cc(-c3cnn(C)c3)sc12 [Example 17, 2-(1-methyl-1H-pyrazol-4-yl)-N-(2-methyl-5-(2-(1-methyl-4,5-dihydro-1H-pyrazolo[3,4-c]pyridin-6 (7H)-yl)acetamido)pyridin-3-yl)pyrazolo[5,1-b]thiazole-7-carboxamide] | 0.5 | > 7500 | 6 |
| Cc1cc(C(=O)NCCN(C)C2CCOCC2)sc1NC(=O)c1cnn2cc(-c3cnn(C)c3)sc12 [Example 192, 2-(1-methyl-1H-pyrazol-4-yl)-N-(3-methyl-5-((2-(methyl(tetrahydro-2H-pyran-4-yl)amino)ethyl)carbamoyl)thiophen-2-yl)pyrazolo[5,1-b]thiazole-7-carboxamide] | 34.6 | > 7500 | 1380 |
| Cc1cc(C(=O)NCCN2CCC(C)(C)C2)sc1NC(=O)c1cnn2cc(-c3cnn(C)c3)sc12 [Example 189, N-(5-((2-(3,3-dimethylpyrrolidin-1-yl)ethyl)carbamoyl)-3-methylthiophen-2-yl)-2-(1-methyl-1H-pyrazol-4-yl)pyrazolo[5,1-b]thiazole-7-carboxamide] | 7.3 | > 7500 | 319 |
| Cc1ncc(C(=O)NCCN2CC3CCC2C3)cc1NC(=O)c1cnn2cc(-c3cn(C)nc3C)sc12 (stereo not drawn) [Example 212, N-(5-((2-(2-azabicyclo[2.2.1]heptan-2-yl)ethyl)carbamoyl)-2-methylpyridin-3-yl)-2-(1,3-dimethyl-1H-pyrazol-4-yl)pyrazolo[5,1-b]thiazole-7-carboxamide] | 0.3 | > 7500 | 1.3 |
| Cc1ncc(NC(=O)OCC(C)(C)N2CCCC2)cc1NC(=O)c1cnn2cc(-c3cnn(C)c3)sc12 [Example 249, 2-methyl-2-(pyrrolidin-1-yl)propyl (6-methyl-5-(2-(1-methyl-1H-pyrazol-4-yl)pyrazolo[5,1-b]thiazole-7-carboxamido)pyridin-3-yl)carbamate] | 0.5 | > 7500 | 6.5 |
| Cc1ncc(C(=O)NCCN2CCCC2(C)C)cc1NC(=O)c1cnn2cc(-c3cnn(CCC(O)CO)c3)sc12 (stereo not drawn) [Example 221, 2-(1-(3,4-Dihydroxybutyl)-1H-pyrazol-4-yl)-N-(5-((2-(2,2-dimethylpyrrolidin-1-yl)ethyl)carbamoyl)-2-methylpyridin-3-yl)pyrazolo[5,1-b]thiazole-7-carboxamide] | 0.9 | > 7500 | 7.1 |
| Cc1ncc(NC(=O)OC2CN(C(C)(C)C)C2)cc1NC(=O)c1cnn2cc(-c3cnn(C)c3)sc12 [Example 252, 1-(tert-butyl)azetidin-3-yl (6-methyl-5-(2-(1-methyl-1H-pyrazol-4-yl)pyrazolo[5,1-b]thiazole-7-carboxamido)pyridin-3-yl)carbamate] | 1.1 | > 7500 | 53.2 |
| Cc1ncc(C(=O)NCCN2CC3CCC2CC3)cc1NC(=O)c1cnn2cc(-c3cnn(C(F)F)c3)sc12 [Example 180, N-(5-((2-(2-azabicyclo[2.2.2]octan-2-yl)ethyl)carbamoyl)-2-methylpyridin-3-yl)-2-(1-(difluoromethyl)-1H-pyrazol-4-yl)pyrazolo[5,1-b]thiazole-7-carboxamide] | 0.4 | > 7500 | 6.1 |
| Cc1cc(C(=O)NCCCN2CCCC2(C)C)sc1NC(=O)c1cnn2cc(-c3cnn(C)c3)sc12 [Example 201, N-(5-((3-(2,2-dimethylpyrrolidin-1-yl)propyl)carbamoyl)-3-methylthiophen-2-yl)-2-(1-methyl-1H-pyrazol-4-yl)pyrazolo[5,1-b]thiazole-7-carboxamide] | 58.5 | > 7500 | 2450 |
| Cc1ncc(C(=O)NCCN2CCCC2(C)C)cc1NC(=O)c1cnn2cc(-n3ncc4cccnc43)sc12 [Example 217, N-(5-((2-(2,2-dimethylpyrrolidin-1-yl)ethyl)carbamoyl)-2-methylpyridin-3-yl)-2-(1H-pyrazolo[3,4-b]pyridin-1-yl)pyrazolo[5,1-b]thiazole-7-carboxamide] | 0.4 | > 7500 | 2.5 |
| Cc1ncc(NC(=O)CCCN2CCC23CCC3)cc1NC(=O)c1cnn2cc(-c3cnn(C)c3)sc12 [Example 215, N-(5-(4-(1-azaspiro[3.3]heptan-1-yl)butanamido)-2-methylpyridin-3-yl)-2-(1-methyl-1H-pyrazol-4-yl)pyrazolo[5,1-b]thiazole-7-carboxamide] | 0.5 | > 7500 | 16.8 |
| Cc1ncc(C(=O)NC2CN(C(C)(C)C)C2)cc1NC(=O)c1cnn2cc(-c3cnn(C)c3)sc12 [Example 237, N-(5-((1-(tert-butyl)azetidin-3-yl)carbamoyl)-2-methylpyridin-3-yl)-2-(1-methyl-1H-pyrazol-4-yl)pyrazolo[5,1-b]thiazole-7-carboxamide] | 1.4 | > 7500 | 57.2 |
| COc1ncccc1-c1cn2ncc(C(=O)Nc3cc(C(=O)NCCN4CCC[C@H]4C)cnc3C)c2s1 [Example 242, (R)-2-(2-methoxypyridin-3-yl)-N-(2-methyl-5-((2-(2-methylpyrrolidin-1-yl)ethyl)carbamoyl)pyridin-3-yl)pyrazolo[5,1-b]thiazole-7-carboxamide] | 0.2 | > 7500 | 1.7 |
| Cc1ncc(NC(=O)OCCN(C)C2CCCCC2)cc1NC(=O)c1cnn2cc(-c3cnn(C)c3)sc12 [Example 251, 2-(cyclohexyl(methyl)amino)ethyl (6-methyl-5-(2-(1-methyl-1H-pyrazol-4-yl)pyrazolo[5,1-b]thiazole-7-carboxamido)pyridin-3-yl)carbamate] | 1.5 | > 7500 | 33.6 |
| Cc1ncc(C(=O)NCCN2CCCC2)cc1NC(=O)c1cnn2cc(-c3cnn(CC(O)CO)c3)sc12 (stereo not drawn) [Example 225, 2-(1-(2,3-Dihydroxypropyl)-1H-pyrazol-4-yl)-N-(2-methyl-5-((2-(pyrrolidin-1-yl)ethyl)carbamoyl)pyridin-3-yl)pyrazolo[5,1-b]thiazole-7-carboxamide] | 0.6 | > 7500 | 12.2 |
